Counter-ions that a name gives are not always drawn.
Test system: Encephalomyocarditis
Assay: in vivo antiviral study, mice challenged subcutaneously with encephalomyocarditis virus
Settings: observation 9 days
Description: Examples 25 to 36 illustrate in vivo antiviral studies with compounds, also referred to as active ingredients, of this invention. In each of the examples the compounds were antivirally active. […] The dosage levels of the compounds used in the examples were within the range of 10 to 250 mg. per kg. of animal body weight for each time the compound was administered.
Table A lists the active ingredient which was administered in each of the examples. Although it is believed that the headings in the examples are self-explanatory, some of the headings are explained as follows. The "challenge," that is, the inoculation with a virus used is generally fatal to all the untreated, that is, control animals in the experiment. "Time of death" refers to the average time of death for the untreated animals. The "Treatment" was prophylactic or therapeutic or both. The term "volume" refers to the volume of composition administered per dose which contained the active ingredient dissolved in sterile water which also contained 0.15% of hydroxyethylcellulose.

[1] = Proph. & Therap., 50 mg/kg subcutaneous, 28,22,2 hrs. pre- and 2 hrs. post-challenge, challenge 10 LD50
[2] = prophylactic, 250 mg/kg oral, 22 hrs. pre-challenge, challenge 6 LD50

## O=C(CN1CCCCC1)c1ccc2oc3ccc(C(=O)CN4CCCCC4)cc3c2c1 [Example 31, 2,8-bis-(piperidinoacetyl)dibenzofuran]
Proph. & Therap., 250 mg/kg subcutaneous, 28,22,2 hrs. pre- and 2 hrs. post-challenge, challenge 32 LD50
  antiviral activity: Yes
prophylactic, 250 mg/kg oral, 22 hrs. pre-challenge, challenge 32 LD50
  antiviral activity: Yes

## CN(C)CC(=O)c1ccc2oc3ccc(C(=O)CN(C)C)cc3c2c1.Cl.Cl.O.O [Example 35, 2,8-bis-[2-(dimethylamino)acetyl]dibenzofuran dihydrochloride dihydrate]
Proph. & Therap., 50 mg/kg oral, 28,22,2 hrs. pre- and 2 hrs. post-challenge, challenge 10 LD50
  antiviral activity: Yes
[1]
  antiviral activity: Yes

## O=C(CCCN1CCCCC1)c1ccc2oc3ccc(C(=O)CCCN4CCCCC4)cc3c2c1 [Example 25, 2,8-bis-(4-piperidinobutyryl)dibenzofuran]
prophylactic, 50 mg/kg subcutaneous, 28,22,2 hrs. pre-challenge, challenge 6 LD50
  antiviral activity: Yes
[2]
  antiviral activity: Yes

## O=C(CCCN1CCOCC1)c1ccc2oc3ccc(C(=O)CCCN4CCOCC4)cc3c2c1 [Example 30, 2,8-bis-(4-morpholinobutyryl)dibenzofuran]
[1]
  antiviral activity: Yes

## CC1CCN(CCCC(=O)c2ccc3oc4ccc(C(=O)CCCN5CCC(C)CC5)cc4c3c2)CC1 [Example 27, 2,8-bis-[4-(4-methylpiperidino)butyryl]dibenzofuran]
Proph. & Therap., 10 mg/kg subcutaneous, 28,22,2 hrs. pre- and 2 hrs. post-challenge, challenge 6 LD50
  antiviral activity: Yes
[2]
  antiviral activity: Yes

## O=C(CCCN1CCC(Cc2ccccc2)CC1)c1ccc2oc3ccc(C(=O)CCCN4CCC(Cc5ccccc5)CC4)cc3c2c1 [Example 29, 2,8-bis-[4-(4-benzylpiperidino)butyryl]dibenzofuran]
Proph. & Therap., 10 mg/kg subcutaneous, 28,22,2 hrs. pre- and 2 hrs. post-challenge, challenge 18 LD50
  antiviral activity: Yes

## CCN(CC)CC(=O)c1ccc2oc3ccc(C(=O)CN(CC)CC)cc3c2c1 [Example 33, 2,8-bis-[2-(diethylamino)acetyl]dibenzofuran dihydrochloride hemihydrate]
Proph. & Therap., 50 mg/kg subcutaneous, 28,22,2 hrs. pre- and 2 hrs. post-challenge, challenge 12 LD50
  antiviral activity: Yes
prophylactic, 250 mg/kg oral, 22 hrs. pre-challenge, challenge 12 LD50
  antiviral activity: Yes
